Source: PubChem BioAssay (NCI)
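How tested: cells in 96-well plates exposed to compound for 48 hours at five concentrations. GI50 marks 50% less growth. Definition used: TGI = concentration required for complete inhibition of growth.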

How the values were obtained:
Assay in all cases: NCI tumour cell line growth inhibition, 48 h
M14 melanoma = test system: M14 melanoma
SR leukemia = test system: SR leukemia
OVCAR-8 ovarian = test system: OVCAR-8 ovarian
SW-620 colon = test system: SW-620 colon
NCI-H23 lung = test system: NCI-H23 lung
NCI/ADR-RES ovarian = test system: NCI/ADR-RES ovarian
RXF 393 renal = test system: RXF 393 renal
MDA-MB-435 = test system: MDA-MB-435
PC-3 prostate = test system: PC-3 prostate
NCI-H522 lung = test system: NCI-H522 lung
NCI-H226 lung = test system: NCI-H226 lung
K-562 leukemia = test system: K-562 leukemia
UACC-257 melanoma = test system: UACC-257 melanoma
A549 NSCLC = test system: A549 NSCLC
U251 CNS = test system: U251 CNS
KM12 colon = test system: KM12 colon
A498 renal = test system: A498 renal
NCI-H460 lung = test system: NCI-H460 lung
MALME-3M melanoma = test system: MALME-3M melanoma
DU-145 prostate = test system: DU-145 prostate
UO-31 renal = test system: UO-31 renal
HS 578T breast = test system: HS 578T breast
SK-OV-3 ovarian = test system: SK-OV-3 ovarian
MDA-MB-231 breast = test system: MDA-MB-231 breast
SNB-75 CNS = test system: SNB-75 CNS
HOP-92 NSCLC = test system: HOP-92 NSCLC
SNB-19 CNS = test system: SNB-19 CNS
SF-295 CNS = test system: SF-295 CNS
OVCAR-4 ovarian = test system: OVCAR-4 ovarian
SF-268 CNS = test system: SF-268 CNS
HOP-62 NSCLC = test system: HOP-62 NSCLC
OVCAR-5 ovarian = test system: OVCAR-5 ovarian
SK-MEL-2 melanoma = test system: SK-MEL-2 melanoma
SN12C renal = test system: SN12C renal
EKVX NSCLC = test system: EKVX NSCLC
HCC-2998 colon = test system: HCC-2998 colon
HL-60(TB) leukemia = test system: HL-60(TB) leukemia
COLO 205 colon = test system: COLO 205 colon
786-0 renal = test system: 786-0 renal
OVCAR-3 ovarian = test system: OVCAR-3 ovarian
UACC-62 melanoma = test system: UACC-62 melanoma
LOX IMVI melanoma = test system: LOX IMVI melanoma
SF-539 CNS = test system: SF-539 CNS
SK-MEL-28 melanoma = test system: SK-MEL-28 melanoma
BT-549 breast = test system: BT-549 breast
CCRF-CEM leukemia = test system: CCRF-CEM leukemia
HCT-15 colon = test system: HCT-15 colon
SK-MEL-5 melanoma = test system: SK-MEL-5 melanoma
RPMI-8226 leukemia = test system: RPMI-8226 leukemia

## C=C1C(=O)O[C@H]2[C@H]1CC/C(COC(=O)CCCCC(=O)OC/C1=C/CC[C@@]3(C)O[C@H]3[C@H]3OC(=O)C(=C)[C@@H]3CC1)=C\CC[C@@]1(C)O[C@@H]21
M14 melanoma
  GI50: 1.95 µM
  TGI: 5.31 µM
SR leukemia
  GI50: 0.584 µM
  TGI: > 100 µM
OVCAR-8 ovarian
  GI50: 2.76 µM
  TGI: 11 µM
SW-620 colon
  GI50: 1.17 µM
  TGI: 2.78 µM
NCI-H23 lung
  GI50: 2.76 µM
  TGI: 14 µM
NCI/ADR-RES ovarian
  GI50: 5.45 µM
  TGI: > 100 µM
RXF 393 renal
  GI50: 0.967 µM
  TGI: 2.31 µM
MDA-MB-435
  GI50: 2.39 µM
  TGI: 8.04 µM
PC-3 prostate
  GI50: 2.43 µM
  TGI: 7.46 µM
NCI-H522 lung
  GI50: 1.76 µM
  TGI: 3.57 µM
NCI-H226 lung
  GI50: 1.9 µM
  TGI: 4.36 µM
K-562 leukemia
  GI50: 1.87 µM
  TGI: > 100 µM
UACC-257 melanoma
  GI50: 1.82 µM
  TGI: 4.4 µM
A549 NSCLC
  GI50: 58.2 µM
  TGI: > 100 µM
U251 CNS
  GI50: 2.58 µM
  TGI: 8.91 µM
KM12 colon
  GI50: 2.94 µM
  TGI: 12.4 µM
A498 renal
  GI50: 11 µM
  TGI: > 100 µM
NCI-H460 lung
  GI50: 3.52 µM
  TGI: 25.5 µM
MALME-3M melanoma
  GI50: 2.1 µM
  TGI: 5.66 µM
DU-145 prostate
  GI50: 3.09 µM
  TGI: > 100 µM
UO-31 renal
  GI50: 1.41 µM
  TGI: 4.57 µM
HS 578T breast
  GI50: 1.97 µM
  TGI: 8.46 µM
SK-OV-3 ovarian
  GI50: 33.4 µM
  TGI: > 100 µM
MDA-MB-231 breast
  GI50: 1.66 µM
  TGI: 3.57 µM
SNB-75 CNS
  GI50: 20 µM
  TGI: > 100 µM
HOP-92 NSCLC
  GI50: 1.64 µM
  TGI: 4.56 µM
SNB-19 CNS
  GI50: 5.99 µM
  TGI: > 100 µM
SF-295 CNS
  GI50: 6.32 µM
  TGI: > 100 µM
OVCAR-4 ovarian
  GI50: 3.01 µM
  TGI: > 100 µM
SF-268 CNS
  GI50: 3.02 µM
  TGI: > 100 µM
HOP-62 NSCLC
  GI50: 3.15 µM
  TGI: 9.61 µM
OVCAR-5 ovarian
  GI50: 2.32 µM
  TGI: 5.94 µM
SK-MEL-2 melanoma
  GI50: 3.39 µM
  TGI: 75.6 µM
SN12C renal
  GI50: 2.62 µM
  TGI: > 100 µM
EKVX NSCLC
  GI50: 2.83 µM
  TGI: > 100 µM
HCC-2998 colon
  GI50: 2.09 µM
  TGI: 3.94 µM
HL-60(TB) leukemia
  GI50: 0.722 µM
  TGI: 3.94 µM
COLO 205 colon
  GI50: 1.29 µM
  TGI: 3.31 µM
786-0 renal
  GI50: 1.69 µM
  TGI: 3.86 µM
OVCAR-3 ovarian
  GI50: 0.84 µM
  TGI: 2.14 µM
UACC-62 melanoma
  GI50: 1.7 µM
  TGI: 4.04 µM
LOX IMVI melanoma
  GI50: 1.45 µM
  TGI: 2.9 µM
SF-539 CNS
  GI50: 2.01 µM
  TGI: 4.96 µM
SK-MEL-28 melanoma
  GI50: 2.85 µM
  TGI: > 100 µM
BT-549 breast
  GI50: 1.37 µM
  TGI: 3.36 µM
CCRF-CEM leukemia
  GI50: 0.429 µM
  TGI: 4.25 µM
HCT-15 colon
  GI50: 1.73 µM
  TGI: 4.2 µM
SK-MEL-5 melanoma
  GI50: 2.6 µM
  TGI: 7.73 µM
RPMI-8226 leukemia
  GI50: 1.81 µM
  TGI: 5.59 µM
